Assay results taken from patent US20250368616A1, “NITROGEN-CONTAINING HETEROCYCLIC DERIVATIVE INHIBITOR, AND PREPARATION METHOD THEREFOR AND USE THEREOF” (SHANGHAI HANSOH BIOMEDICAL CO., LTD., priority 2021, published 2025).

Tests used:
[1] = system: Ba/F3 EGFR Del19/C797S cells; experiment: Cell proliferation inhibition assay (Cell Titer-Glo), Ba/F3 EGFR Del19/C797S; assay type: cell-based; details: 72 hours, read-out: Ba/F3 EGFR Del19_C797S IC50
From the text: (§1) Test Example 2: Cell Proliferation Inhibition Assay
(§2) Experimental objective: The objective of this test example is to test the inhibitory activity of compounds on the proliferation of different EGFR C797S drug-resistant mutant cell lines Ba/F3 EGFR Del19/T790M/C797S, Ba/F3 EGFR L858R/T790M/C797S, and Ba/F3 EGFR Del19/C797S.
(§3) • Ba/F3 EGFR Del19/T790M/C797S cells were purchased from KYinno Biotechnology Co., Ltd.; • Ba/F3 EGFR Del19/C797S cells were purchased from CoBioer Biosciences Co., Ltd.; • Ba/F3 EGFR L858R/T790M/C797S cells were purchased from CoBioer Biosciences Co., Ltd.; • Cell Titer-Glo was purchased from Promega, with a catalog number of G7573; • RPMI 1640 was purchased from Gibco, with a catalog number of 22400089; • FBS was purchased from Gibco, with a catalog number of 10091148; • cell culture plates were purchased from Corning, with a catalog number of 3610.
(§4) The inhibitory activity of the compound on the proliferation of different EGFR C797S drug-resistant mutant cell lines was detected using the Cell Titer-Glo method. The different cell lines were cultured in RPMI 1640 complete culture medium containing 10% FBS under conditions of 37° C. and 5% CO2, the cells were collected by centrifugation when growing to a certain density, and adjusted to appropriate cell density after counting, the cells were spread on a white 96-well plate at 90 μL/well, and cultured in a 37° C., 5% CO2 incubator overnight, prepared compound solutions of different concentrations were added at 10 μL/well, corresponding solvent controls were set, and all wells were cultured in a 37° C., 5% CO2 incubator for 72 hours, 50 μL of CellTiter-Glo solution was added to each well, shook and mixed evenly, and incubated in the dark for 10 minutes, and a BioTek Synergy H1 microplate reader was used for reading.
(§5) The luminescence signal value was used to calculate the inhibition rate. Graphpad Prism software was used to fit the concentration and inhibition rate to a nonlinear regression curve, so as to obtain the IC50 value, as shown in Tables 3 and 4 below for details.

[2] = system: Ba/F3 EGFR Del19/T790M/C797S cells; experiment: Cell proliferation inhibition assay (Cell Titer-Glo), Ba/F3 EGFR Del19/T790M/C797S; assay type: cell-based; details: 72 hours, read-out: Ba/F3 EGFR Del19_T790M_C797S IC50
From the text: as §1, §2, §3, §4, §5

[3] = biological target: EGFR del19/T790M/C797S mutant kinase (Homo sapiens, UniProt P00533, C797S/DEL746-750/T790M); experiment: HTRF kinase assay, EGFR del19/T790M/C797S mutant kinase; assay type: biochemical; details: 120 minutes at room temperature
From the text: (§6) Test Example 1. Determination of the Inhibitory Effect of the Compounds of the Present Invention on the Activity of EGFR del19/T790M/C797S and EGFR L858R/T790M/C797S Mutant Kinases
(§7) Experimental objective: The objective of this test example is to test the inhibitory activity of the compounds on the activity of EGFR del19/T790M/C797S and EGFR L858R/T790M/C797S mutant kinases.
(§8) Experimental method: This experiment used Cisbio's HTRF kinase assay method (Cisbio #62TK0PEB), wherein a catalytic reaction occurred between the substrate polypeptide TK and ATP in the presence of the tyrosine kinase with EGFR del19/T790M/C797S or EGFR L858R/T790M/C797S mutation, the substance was phosphorylated, and the activity of the kinase was characterized by measuring the content of the phosphorylated substrate generated during the reaction, and the half inhibitory concentration IC50 of the compound on the activity of EGFR del19/T790M/C797S or EGFR L858R/T790M/C797S mutant kinase was obtained.
(§9) Specific Experimental Operations were as Follows: • the kinase reaction was carried out in a white 384-well plate (Perkin Elmer #6008280), and 1-5 μL of compounds of different concentrations which were diluted with 1% DMSO-containing ddH2O were added; to the positive control wells were added 1-5 μL of 1% DMSO-containing ddH2O, followed by 1-5 μL of 0.5-5 nM 4×EGFR del19/T790M/C797S or EGFR L858R/T790M/C797S mutant kinase solution which was diluted with Dilution buffer (5× kinase buffer, MgCl2 6.65 Mm, MnCl2 1.33 mM, DTT 1.33 mM); to the negative control wells were added 1-5 μL of Dilution buffer; to all the wells were added 1-5 μL of 4 μM 4× substrate TK solution which was prepared with 10× Dilution buffer, and finally added 1-5 μL of 24 μM 4×ATP solution which was diluted with Dilution buffer to start the reaction; after reacting at room temperature for 120 minutes, 10 μL of detection solution (TK antibody 16 nM, XL665 0.5 μM) was added to each well, same was reacted at room temperature in the dark for 20 minutes, and then the […] was detected using a BioTek Synergy H1 microplate reader.
(§10) The percent inhibition data for compound-treated wells was calculated according to the positive control wells (DMSO control wells) and negative control wells (no kinase added) on the plate {% inhibition rate=100−[(test compound value−negative control value)]/(positive control value−negative control value)×100}. GraphPad prism was used to fit different concentrations and corresponding percent inhibition rate data to a 4-parameter nonlinear logistic equation to calculate IC50 values.

[4] = biological target: EGFR L858R/T790M/C797S mutant kinase (Homo sapiens (Human), UniProt P00533, C797S/L858R/T790M); experiment: HTRF kinase assay, EGFR L858R/T790M/C797S mutant kinase; assay type: biochemical; details: 120 minutes at room temperature
From the text: as §6, §7, §8, §9, §10

Chain of EGFR L858R/T790M/C797S mutant kinase (P00533 25-1210 T790M/C797S/L858R): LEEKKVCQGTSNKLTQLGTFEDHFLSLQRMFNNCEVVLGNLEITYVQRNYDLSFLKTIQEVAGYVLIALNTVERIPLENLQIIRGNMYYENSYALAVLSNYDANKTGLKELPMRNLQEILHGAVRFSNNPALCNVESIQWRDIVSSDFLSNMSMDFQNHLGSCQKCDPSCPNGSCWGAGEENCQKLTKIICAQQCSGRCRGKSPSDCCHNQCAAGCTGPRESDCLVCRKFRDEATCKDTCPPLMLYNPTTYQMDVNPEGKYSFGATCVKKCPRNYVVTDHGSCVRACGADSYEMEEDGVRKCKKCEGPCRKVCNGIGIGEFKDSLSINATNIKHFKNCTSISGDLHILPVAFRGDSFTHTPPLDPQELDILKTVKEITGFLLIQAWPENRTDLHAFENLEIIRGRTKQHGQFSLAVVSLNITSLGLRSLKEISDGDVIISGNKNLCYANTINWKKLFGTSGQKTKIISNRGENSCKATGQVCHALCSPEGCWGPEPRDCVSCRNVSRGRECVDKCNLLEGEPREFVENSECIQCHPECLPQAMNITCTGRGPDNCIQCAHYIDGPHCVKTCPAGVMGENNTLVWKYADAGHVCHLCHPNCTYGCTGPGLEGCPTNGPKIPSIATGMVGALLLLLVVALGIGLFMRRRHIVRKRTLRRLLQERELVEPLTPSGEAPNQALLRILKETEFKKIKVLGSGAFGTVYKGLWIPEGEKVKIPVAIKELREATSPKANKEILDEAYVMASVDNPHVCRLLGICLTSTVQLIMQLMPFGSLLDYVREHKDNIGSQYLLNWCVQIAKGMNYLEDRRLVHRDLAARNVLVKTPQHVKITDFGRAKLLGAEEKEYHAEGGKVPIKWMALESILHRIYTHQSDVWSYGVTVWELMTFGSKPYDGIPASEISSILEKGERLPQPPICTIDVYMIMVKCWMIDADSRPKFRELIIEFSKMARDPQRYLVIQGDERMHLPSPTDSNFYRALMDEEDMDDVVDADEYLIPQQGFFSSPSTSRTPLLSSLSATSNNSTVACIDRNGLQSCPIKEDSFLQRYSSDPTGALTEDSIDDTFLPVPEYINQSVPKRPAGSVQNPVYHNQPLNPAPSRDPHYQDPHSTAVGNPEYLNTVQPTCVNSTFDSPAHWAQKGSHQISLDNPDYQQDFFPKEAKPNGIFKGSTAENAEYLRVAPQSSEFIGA
Chain of EGFR del19/T790M/C797S mutant kinase (P00533 with tags, fused parts or gaps C797S/DEL746-750/T790M limits assumed): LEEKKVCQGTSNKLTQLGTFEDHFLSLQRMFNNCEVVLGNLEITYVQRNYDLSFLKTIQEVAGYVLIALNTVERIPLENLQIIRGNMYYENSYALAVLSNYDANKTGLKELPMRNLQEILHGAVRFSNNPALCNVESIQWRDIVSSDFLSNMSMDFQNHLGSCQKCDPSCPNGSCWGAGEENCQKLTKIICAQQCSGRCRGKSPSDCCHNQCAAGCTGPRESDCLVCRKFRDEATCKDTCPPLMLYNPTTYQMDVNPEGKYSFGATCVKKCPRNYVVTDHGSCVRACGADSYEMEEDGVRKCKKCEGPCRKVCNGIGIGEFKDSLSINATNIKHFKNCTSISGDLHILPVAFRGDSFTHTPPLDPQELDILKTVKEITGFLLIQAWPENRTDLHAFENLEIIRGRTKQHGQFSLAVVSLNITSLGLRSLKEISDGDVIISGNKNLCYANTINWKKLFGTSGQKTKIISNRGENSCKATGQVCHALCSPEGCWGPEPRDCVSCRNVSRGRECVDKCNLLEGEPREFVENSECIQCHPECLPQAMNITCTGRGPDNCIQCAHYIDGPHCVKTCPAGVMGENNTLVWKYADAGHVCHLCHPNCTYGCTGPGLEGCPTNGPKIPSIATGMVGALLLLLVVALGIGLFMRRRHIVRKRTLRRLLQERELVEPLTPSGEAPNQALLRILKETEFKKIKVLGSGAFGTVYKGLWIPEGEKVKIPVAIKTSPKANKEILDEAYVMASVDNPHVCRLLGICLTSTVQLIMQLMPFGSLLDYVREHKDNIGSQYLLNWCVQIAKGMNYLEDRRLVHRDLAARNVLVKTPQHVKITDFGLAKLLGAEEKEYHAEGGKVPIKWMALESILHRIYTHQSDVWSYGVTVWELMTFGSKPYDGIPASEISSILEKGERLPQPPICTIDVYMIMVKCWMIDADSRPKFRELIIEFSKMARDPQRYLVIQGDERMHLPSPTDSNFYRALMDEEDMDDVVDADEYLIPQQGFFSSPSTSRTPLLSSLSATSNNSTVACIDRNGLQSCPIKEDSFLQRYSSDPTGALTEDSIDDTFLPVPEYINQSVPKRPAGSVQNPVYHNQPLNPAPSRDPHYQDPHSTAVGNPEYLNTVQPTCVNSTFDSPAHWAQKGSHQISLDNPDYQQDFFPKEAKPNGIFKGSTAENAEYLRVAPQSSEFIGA

Row | IC50 [1] [nM] | IC50 [2] [nM] | IC50 [3] [nM] | IC50 [4] [nM] | Structure (SMILES)
1 | 10 | 5.5 | 9.4 |  | CC(C)c1cnc(N2CC(CS(C)(=O)=O)C2)c2cnc(Nc3ccnc(-c4cnn(S(=O)(=O)C5CC5)c4)n3)cc12 [Example 3, N-(2-(1-(cyclopropylsulfonyl)-1H-pyrazol-4-yl)pyrimidin-4-yl)-5-isopropyl-8-(3-((methanesulfonyl)methyl)azetidin-1-yl)-2,7-diazanaphthalen-3-amine]
2 | 54 |  | 3.6 | 0.73 | CC(C)c1ccc(N2C[C@H](CS(C)(=O)=O)[C@H]2C)c2cnc(Nc3ccnc(-c4cnn(C5CCN(C)CC5)c4)n3)cc12 [Example 14, 5-isopropyl-8-((2R,3S)-2-methyl-3-((methanesulfonyl)methyl)azetidin-1-yl)-N-(2-(1-(1-methylpiperidin-4-yl)-1H-pyrazol-4-yl)pyrimidin-4-yl)isoquinolin-3-amine]
3 | 41 |  | 2.5 | 1.9 | CC(C)c1ccc(N2C[C@H](CS(C)(=O)=O)[C@H]2C)c2cnc(Nc3ccnc(-c4cnn(C5CC5)c4)n3)cc12 [Example 15, N-(2-(1-cyclopropyl-1H-pyrazol-4-yl)pyrimidin-4-yl)-5-isopropyl-8-((2R,3S)-2-methyl-3-((methanesulfonyl)methyl)azetidin-1-yl)isoquinolin-3-amine]
4 |  |  | 3 | 0.71 | CC(C)c1ccc(N2C[C@H](CS(C)(=O)=O)[C@H]2C)c2cnc(Nc3ccnc(-c4cn[nH]c4)n3)cc12 [Example 17, N-(2-(1H-pyrazol-4-yl)pyrimidin-4-yl)-5-isopropyl-8-((2R,3S)-2-methyl-3-((methanesulfonyl)methyl)azetidin-1-yl)isoquinolin-3-amine]
5 |  |  | 2.5 | 1 | CC(C)c1ccc(N2C[C@H](CS(C)(=O)=O)[C@H]2C)c2cnc(Nc3ccnc(-c4cnn(CC5(C#N)CC5)c4)n3)cc12 [Example 19, 1-((4-(4-((5-isopropyl-8-((2R,3S)-2-methyl-3-((methanesulfonyl)methyl)azetidin-1-yl)isoquinolin-3-yl)amino)pyrimidin-2-yl)-1H-pyrazol-1-yl)methyl)cyclopropane-1-carbonitrile]
6 |  |  | 6.2 | 0.92 | CC(C)c1ccc(N2C[C@H](CS(C)(=O)=O)[C@H]2C)c2cnc(Nc3ccnc(-c4cnn(C5COC5)c4)n3)cc12 [Example 20, 5-isopropyl-8-((2R,3S)-2-methyl-3-((methanesulfonyl)methyl)azetidin-1-yl)-N-(2-(1-(oxetan-3-yl)-1H-pyrazol-4-yl)pyrimidin-4-yl)isoquinolin-3-amine]
7 | 78 |  |  | 1 | CC(C)c1ccc(N2C[C@H](CS(C)(=O)=O)[C@H]2C)c2cnc(Nc3ccnc(-c4cnn(CC(F)(F)F)c4)n3)cc12 [Example 26, 5-isopropyl-8-((2R,3S)-2-methyl-3-((methanesulfonyl)methyl)azetidin-1-yl)-N-(2-(1-(2,2,2-trifluoroethyl)-1H-pyrazol-4-yl)pyrimidin-4-yl)isoquinolin-3-amine]
8 | 24 | 9.1 |  |  | Cc1nn(C)cc1-c1nccc(Nc2cc3c(C(C)C)ccc(N4C[C@H](CS(=O)(=O)N(C)C)[C@H]4C)c3cn2)n1 [Example 61, 1-((2R,3S)-1-(3-((2-(1,3-dimethyl-1H-pyrazol-4-yl)pyrimidin-4-yl)amino)-5-isopropylisoquinolin-8-yl)-2-methylazetidin-3-yl)-N,N-dimethyl methanesulfonamide]
9 | 78 |  |  | 0.17 | COCC1(Cn2cc(-c3nccc(Nc4cc5c(C(C)C)ccc(N6C[C@H](CS(C)(=O)=O)[C@H]6C)c5cn4)n3)cn2)CC1 [Example 66, 5-isopropyl-N-(2-(1-((1-(methoxymethyl)cyclopropyl)methyl)-1H-pyrazol-4-yl)pyrimidin-4-yl)-8-((2R,3S)-2-methyl-3-((methanesulfonyl)methyl)azetidin-1-yl)isoquinolin-3-amine]
10 | 10 | 11 |  |  | CC(C)c1ccc(N2C[C@H](CS(C)(=O)=O)[C@H]2C)c2cnc(Nc3ccnc(-c4cn(C5CC5)nc4Cl)n3)cc12 [Example 70, N-(2-(3-chloro-1-cyclopropyl-1H-pyrazol-4-yl)pyrimidin-4-yl)-5-isopropyl-8-((2R,3S)-2-methyl-3-((methanesulfonyl)methyl)azetidin-1-yl)isoquinolin-3-amine]
11 | 8.5 | 11 |  |  | COCCn1cc(-c2nccc(Nc3cc4c(C(C)C)ccc(N5C[C@H](CS(C)(=O)=O)[C@H]5C)c4cn3)n2)c(Cl)n1 [Example 73, N-(2-(3-chloro-1-(2-methoxyethyl)-1H-pyrazol-4-yl)pyrimidin-4-yl)-5-isopropyl-8-((2R,3S)-2-methyl-3-((methanesulfonyl)methyl)azetidin-1-yl)isoquinolin-3-amine]
12 | 14 | 14 |  |  | CC(C)c1ccc(N2C[C@H](N3CCOC3=O)[C@H]2C)c2cnc(Nc3ccnc(-c4cn(C)nc4Cl)n3)cc12 [Example 74, 3-((2R,3S)-1-(3-((2-(3-chloro-1-methyl-1H-pyrazol-4-yl)pyrimidin-4-yl)amino)-5-isopropylisoquinolin-8-yl)-2-methylazetidin-3-yl)oxazolidin-2-one]
13 | 27 | 12 |  |  | CC(C)c1ccc(N2C[C@H](CS(C)(=O)=O)[C@H]2C)c2cnc(Nc3ccnc(-c4cn(C5CCOCC5)nc4Cl)n3)cc12 [Example 78, N-(2-(3-chloro-1-(tetrahydro-2H-pyran-4-yl)-1H-pyrazol-4-yl)pyrimidin-4-yl)-5-isopropyl-8-((2R,3S)-2-methyl-3-((methanesulfonyl)methyl)azetidin-1-yl)isoquinolin-3-amine]
14 | 11 | 7.7 |  |  | CC(C)c1ccc(N2CC(N(C)S(C)(=O)=O)C2)c2cnc(Nc3ccnc(-c4cn(CCO)nc4Cl)n3)cc12 [Example 79, N-(1-(3-((2-(3-chloro-1-(2-hydroxyethyl)-1H-pyrazol-4-yl)pyrimidin-4-yl)amino)-5-isopropylisoquinolin-8-yl)azetidin-3-yl)-N-methyl Methanesulfonamide]
15 | 17 | 10 |  |  | CC(O)Cn1cc(-c2nccc(Nc3cc4c(C(C)C)ccc(N5C[C@H](CS(C)(=O)=O)[C@H]5C)c4cn3)n2)c(Cl)n1 (stereo partly drawn) [Example 80, 1-(3-chloro-4-(4-((5-isopropyl-8-((2R,3S)-2-methyl-3-((methanesulfonyl)methyl)azetidin-1-yl)isoquinolin-3-yl)amino)pyrimidin-2-yl)-1H-pyrazol-1-yl)propan-2-ol]
